Target: human F508del-CFTR (Homo sapiens, UniProt P13569, DEL508-508)
Assay: F508del-CFTR cell surface expression (corrector activity), DiscoveRx ß-galactosidase complementation chemiluminescence assay in recombinant U2OS cell line;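 note: U2OS cells co-expressing ProLink-tagged F508del-CFTR and a membrane-anchored enzyme acceptor, where more surface CFTR restores β-galactosidase activity measured by chemiluminescence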
Details: for EC50: EC50, F508del-CFTR cell surface expression; for Emax: U2OS
[1] = U2OS cells, 16h compound incubation, geomean of several measurements
[2] = in relation to the Emax of the corrector lumacaftor (=100%), U2OS cells, 16h compound incubation, arithmetic mean
[3] = U2OS cell line, 16h compound incubation, geomean values
[4] = in relation to the Emax of the corrector lumacaftor (=100%), U2OS cell line, 16h compound incubation, arithmetic mean values
[5] = U2OS cells, 16h compound incubation, geomean values
[6] = in relation to Emax of corrector lumacaftor (=100%), arithmetic mean values

Sequence of human F508del-CFTR (P13569 with tags, fused parts or gaps DEL508-508): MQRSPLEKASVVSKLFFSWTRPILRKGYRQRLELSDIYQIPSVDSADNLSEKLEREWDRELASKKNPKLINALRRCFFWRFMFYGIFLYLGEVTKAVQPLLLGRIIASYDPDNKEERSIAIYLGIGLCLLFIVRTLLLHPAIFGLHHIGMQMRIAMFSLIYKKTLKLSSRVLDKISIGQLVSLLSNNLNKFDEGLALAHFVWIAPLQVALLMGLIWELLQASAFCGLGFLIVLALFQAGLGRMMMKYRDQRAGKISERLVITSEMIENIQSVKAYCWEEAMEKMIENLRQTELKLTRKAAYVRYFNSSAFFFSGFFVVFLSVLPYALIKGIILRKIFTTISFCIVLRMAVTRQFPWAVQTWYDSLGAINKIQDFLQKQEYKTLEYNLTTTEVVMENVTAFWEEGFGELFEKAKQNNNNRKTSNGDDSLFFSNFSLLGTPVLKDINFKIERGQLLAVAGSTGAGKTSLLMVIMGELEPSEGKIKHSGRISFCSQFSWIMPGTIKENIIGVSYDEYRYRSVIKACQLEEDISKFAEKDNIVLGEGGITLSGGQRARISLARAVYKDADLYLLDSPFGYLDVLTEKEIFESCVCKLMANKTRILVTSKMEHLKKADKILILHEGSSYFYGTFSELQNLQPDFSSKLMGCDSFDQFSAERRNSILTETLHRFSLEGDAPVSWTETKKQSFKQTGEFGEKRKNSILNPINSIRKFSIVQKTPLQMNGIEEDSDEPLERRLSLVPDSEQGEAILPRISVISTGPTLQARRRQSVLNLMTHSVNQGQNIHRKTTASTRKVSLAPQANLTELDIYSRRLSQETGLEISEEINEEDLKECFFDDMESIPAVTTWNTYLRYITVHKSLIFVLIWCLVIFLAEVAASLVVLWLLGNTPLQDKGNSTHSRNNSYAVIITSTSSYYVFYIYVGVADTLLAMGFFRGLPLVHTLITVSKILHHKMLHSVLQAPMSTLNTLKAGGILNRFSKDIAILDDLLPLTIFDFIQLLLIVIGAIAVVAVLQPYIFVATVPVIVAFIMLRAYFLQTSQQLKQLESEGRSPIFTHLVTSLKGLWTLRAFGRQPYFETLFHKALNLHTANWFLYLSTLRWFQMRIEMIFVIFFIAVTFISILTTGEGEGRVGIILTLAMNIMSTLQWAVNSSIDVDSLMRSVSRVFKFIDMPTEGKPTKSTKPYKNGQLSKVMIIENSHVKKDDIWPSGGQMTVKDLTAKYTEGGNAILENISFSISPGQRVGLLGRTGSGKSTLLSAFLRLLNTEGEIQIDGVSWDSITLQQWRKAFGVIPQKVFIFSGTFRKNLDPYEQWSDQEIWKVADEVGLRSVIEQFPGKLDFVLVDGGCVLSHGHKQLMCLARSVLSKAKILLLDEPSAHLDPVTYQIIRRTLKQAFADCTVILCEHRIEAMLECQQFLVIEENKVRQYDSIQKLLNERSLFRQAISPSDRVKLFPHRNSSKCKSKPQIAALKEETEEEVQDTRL

CC(C)C[C@H]1C(=O)N(C)[C@H](Cc2nc(-c3ccc(F)cn3)no2)C(=O)N[C@H](Cc2ccccc2)COc2ccc3ncc(F)cc3c2C(=O)N[C@H](C(=O)NCCn2nnc(C3CC3)n2)CC(=O)N1C [Example 804, (3S,7S,10R,13R)-13-benzyl-N-(2-(5-cyclopropyl-2H-tetrazol-2-yl)ethyl)-20-fluoro-10-((3-(5-fluoropyridin-2-yl)-1,2,4-oxadiazol-5-yl)methyl)-7-isobutyl-6,9-dimethyl-1,5,8,11-tetraoxo-1,2,3,4,5,6,7,8,9,10,11,12,13,14-tetradecahydro-[1]oxa[4,7,10,14]tetraazacycloheptadecino[16,17-f]quinoline-3-carboxamide]
EC50 [1]: 115 nM
Emax [2]: 360%

COc1cccc2c1C(=O)N[C@H](C(=O)NCCc1ccc3c(c1)OCC3)CC(=O)N(C)[C@@H](CC(C)C)C(=O)N(CCC1CCCCC1)CC(=O)N[C@H](Cc1ccccc1)CO2 (mixture of isomers) [Example 15, (3R,9S,13RS)-3-benzyl-7-(2-cyclohexylethyl)-N-(2-(2,3-dihydrobenzofuran-6-yl)ethyl)-9-isobutyl-16-methoxy-10-methyl-5,8,11,15-tetraoxo-2,3,4,5,6,7,8,9,10,11,12,13,14,15-tetradecahydrobenzo[p][1]oxa[4,7,10,14]tetraazacycloheptadecine-13-carboxamide]
EC50 [3]: 187 nM

CC(C)C[C@H]1C(=O)N(CCC2CCCOC2)CC(=O)N[C@H](Cc2ccccc2)COc2ccc3ccccc3c2C(=O)N[C@H](C(=O)NCCc2ccc3c(c2)OCO3)CC(=O)N1C (stereo partly drawn) [Example 333, (3S,7S,13R)-N-(2-(benzo[d][1,3]dioxol-5-yl)ethyl)-13-benzyl-7-isobutyl-6-methyl-1,5,8,11-tetraoxo-9-(2-(tetrahydro-2H-pyran-3-yl)ethyl)-1,2,3,4,5,6,7,8,9,10,11,12,13,14-tetradecahydronaphtho[1,2-p][1]oxa[4,7,10,14]tetraazacycloheptadecine-3-carboxamide]
EC50 [3]: 345 nM
Emax [4]: 182%

CC(C)C[C@H]1C(=O)N(C)[C@H](CC(F)F)C(=O)N[C@H](Cc2ccccc2)COc2ccc3ncc(F)cc3c2C(=O)N[C@H](C(=O)NCCn2nnc(C3CC3)n2)CC(=O)N1C [Example 893, (3S,7S,10R,13R)-13-benzyl-N-(2-(5-cyclopropyl-2H-tetrazol-2-yl)ethyl)-10-(2,2-difluoroethyl)-20-fluoro-7-isobutyl-6,9-dimethyl-1,5,8,11-tetraoxo-1,2,3,4,5,6,7,8,9,10,11,12,13,14-tetradecahydro-[1]oxa[4,7,10,14]tetraazacycloheptadecino[16,17-f]quinoline-3-carboxamide]
EC50 [1]: 216 nM
Emax [2]: 394%

CC(C)C[C@H]1C(=O)N(C)C2(CC2)C(=O)N[C@H](Cc2ccccc2)COc2cnc3ccccc3c2C(=O)N[C@H](C(=O)NCCc2ccc(F)c(F)c2)CC(=O)N1C [Example 113, (3′S,7′S,13′R)-13′-benzyl-N-(3,4-difluorophenethyl)-7′-isobutyl-6′,9′-dimethyl-1′,5′,8′,11′-tetraoxo-2′,3′,4′,5′,6′,7′,8′,9′,11′,12′,13′,14′-dodecahydro-1′H-spiro[cyclopropane-1,10′-[1]oxa[4,7,10,14]tetraazacycloheptadecino[17,16-c]quinoline]-3′-carboxamide]
EC50 [3]: 369 nM
Emax [4]: 158%

COc1cc(CCNC(=O)[C@@H]2CC(=O)N(C)[C@@H](CC(C)C)C(=O)N(C)[C@H](CC3CCC(F)(F)CC3)C(=O)N[C@H](Cc3ccccc3)COc3ccnc(OC)c3C(=O)N2)on1 [Example 854, (3R,6R,9S,13S)-3-benzyl-6-((4,4-difluorocyclohexyl)methyl)-9-isobutyl-16-methoxy-N-(2-(3-methoxyisoxazol-5-yl)ethyl)-7,10-dimethyl-5,8,11,15-tetraoxo-2,3,4,5,6,7,8,9,10,11,12,13,14,15-tetradecahydropyrido[3,4-p][1]oxa[4,7,10,14]tetraazacycloheptadecine-13-carboxamide]
EC50 [1]: 136 nM
Emax [2]: 326%

COc1noc(CCNC(=O)[C@@H]2CC(=O)N(C)[C@@H](CC(C)C)C(=O)N(C)[C@H](Cc3nc(C(F)(F)F)no3)C(=O)N[C@H](Cc3ccccc3)COc3ccc4c(cc(F)c[n+]4[O-])c3C(=O)N2)n1 [Example 983, (3S,7S,10R,13R)-13-benzyl-20-fluoro-7-isobutyl-3-((2-(3-methoxy-1,2,4-oxadiazol-5-yl)ethyl)carbamoyl)-6,9-dimethyl-1,5,8,11-tetraoxo-10-((3-(trifluoromethyl)-1,2,4-oxadiazol-5-yl)methyl)-1,2,3,4,5,6,7,8,9,10,11,12,13,14-tetradecahydro-[1]oxa[4,7,10,14]tetraazacycloheptadecino[16,17-f]quinoline 18-oxide]
EC50 [1]: 270 nM
Emax [2]: 506%

CC(C)C[C@H]1C(=O)N(C)C2(CC2)C(=O)N[C@H](Cc2ccccc2)COc2cnc3ccc(F)cc3c2C(=O)N[C@H](C(=O)NCCc2cccc(-c3cnccn3)c2)CC(=O)N1C [Example 134, (3′S,7′S,13′R)-13′-benzyl-20′-fluoro-7′-isobutyl-6′,9′-dimethyl-1′,5′,8′,11′-tetraoxo-N-(3-(pyrazin-2-yl)phenethyl)-2′,3′,4′,5′,6′,7′,8′,9′,11′,12′,13′,14′-dodecahydro-1′H-spiro[cyclopropane-1,10′-[1]oxa[4,7,10,14]tetraazacycloheptadecino[17,16-c]quinoline]-3′-carboxamide]
EC50 [3]: 506 nM
Emax [4]: 150%

COc1cc2c(c(OC)n1)C(=O)N[C@H](C(=O)NCCc1cc(C3CC3)no1)CC(=O)N(C)[C@@H](CC(C)C)C(=O)N1CCCC[C@@H]1C(=O)N[C@H](Cc1ccccc1)CO2 [Example 870, (7S,11S,17aR,20R)-20-benzyl-N-(2-(3-cyclopropylisoxazol-5-yl)ethyl)-11-isobutyl-2,4-dimethoxy-10-methyl-5,9,12,18-tetraoxo-5,6,7,8,9,10,11,12,15,16,17,17a,18,19,20,21-hexadecahydro-14H-dipyrido[2,1-f:3′,4′-p][1]oxa[4,7,10,14]tetraazacycloheptadecine-7-carboxamide]
EC50 [1]: 201 nM
Emax [2]: 316%

COc1cccc(CCNC(=O)[C@@H]2CC(=O)N(C)[C@@H](CC(C)C)C(=O)N(C)CC(=O)N[C@H](Cc3ccccc3)COc3ccc(C)cc3C(=O)N2)c1 [Example 230, (3R,9S,13S)-3-benzyl-9-isobutyl-N-(3-methoxyphenethyl)-7,10,17-trimethyl-5,8,11,15-tetraoxo-2,3,4,5,6,7,8,9,10,11,12,13,14,15-tetradecahydrobenzo[p][1]oxa[4,7,10,14]tetraazacycloheptadecine-13-carboxamide]
EC50 [3]: 482 nM
Emax [4]: 103%

CC(C)C[C@H]1C(=O)N2CCOC[C@@H]2C(=O)N[C@H](Cc2ccccc2)COc2cnc3ccccc3c2C(=O)N[C@H](C(=O)NCCc2ccc(-n3nccn3)cc2)CC(=O)N1C [Example 55, (9S,13S,19aR,22R)-N-(4-(2H-1,2,3-triazol-2-yl)phenethyl)-22-benzyl-13-isobutyl-12-methyl-7,11,14,20-tetraoxo-7,8,9,10,11,12,13,14,16,17,19,19a,20,21,22,23-hexadecahydro-[1,4]oxazino[3′,4′:6,7][1]oxa[4,7,10,14]tetraazacycloheptadecino[17,16-c]quinoline-9-carboxamide]
EC50 [3]: 945 nM
Emax [4]: 245%

CC(C)C[C@H]1C(=O)N2CCCC[C@H]2C(=O)N[C@H](Cc2ccccc2)COc2cnc3ccc(F)cc3c2C(=O)N[C@H](C(=O)NCCc2nc(C3CC3)no2)CC(=O)N1C [Example 521, (9S,13S,19aS,22R)-22-benzyl-N-(2-(3-cyclopropyl-1,2,4-oxadiazol-5-yl)ethyl)-5-fluoro-13-isobutyl-12-methyl-7,11,14,20-tetraoxo-7,8,9,10,11,12,13,14,17,18,19,19a,20,21,22,23-hexadecahydro-16H-pyrido[2′,1′:6,7][1]oxa[4,7,10,14]tetraazacycloheptadecino[17,16-c]quinoline-9-carboxamide]
EC50 [5]: 433 nM
Emax [6]: 191%

CC(C)C[C@H]1C(=O)N2CCCC[C@@H]2C(=O)N[C@H](Cc2ccccc2)COc2cnc3cccc(F)c3c2C(=O)N[C@H](C(=O)NCCc2cc(C3CC3)no2)CC(=O)N1C [Example 660, (9S,13S,19aR,22R)-22-benzyl-N-(2-(3-cyclopropylisoxazol-5-yl)ethyl)-6-fluoro-13-isobutyl-12-methyl-7,11,14,20-tetraoxo-7,8,9,10,11,12,13,14,17,18,19,19a,20,21,22,23-hexadecahydro-16H-pyrido[2′,1′:6,7][1]oxa[4,7,10,14]tetraazacycloheptadecino[17,16-c]quinoline-9-carboxamide]
EC50 [5]: 91 nM
Emax [6]: 358%

COc1cc2c(cc1OC)C(=O)N[C@H](C(=O)NCCc1ccc3c(c1)CCO3)CC(=O)N(C)[C@@H](CC(C)C)C(=O)N(C)CC(=O)N[C@H](Cc1ccccc1)CO2 (mixture of isomers) [Example 152, (3R,9S,13RS)-3-benzyl-N-(2-(2,3-dihydrobenzofuran-5-yl)ethyl)-9-isobutyl-17,18-dimethoxy-7,10-dimethyl-5,8,11,15-tetraoxo-2,3,4,5,6,7,8,9,10,11,12,13,14,15-tetradecahydrobenzo[p][1]oxa[4,7,10,14]tetraazacycloheptadecine-13-carboxamide]
EC50 [3]: 668 nM

COc1cc(CCNC(=O)[C@@H]2CC(=O)N(C)[C@@H](CC(C)C)C(=O)N3CCCC[C@@H]3C(=O)N[C@H](Cc3ccccc3)COc3ccc4ncn(C)c4c3C(=O)N2)cc(OC)c1 [Example 328, (8S,12S,18aR,21R)-21-benzyl-N-(3,5-dimethoxyphenethyl)-12-isobutyl-5,11-dimethyl-6,10,13,19-tetraoxo-6,7,8,9,10,11,12,13,16,17,18,18a,19,20,21,22-hexadecahydro-5H,15H-imidazo[4′,5′:5,6]benzo[1,2-p]pyrido[2,1-f][1]oxa[4,7,10,14]tetraazacycloheptadecine-8-carboxamide]
EC50 [3]: 987 nM
Emax [4]: 228%
